Laboratory results: ChEMBL document CHEMBL4507294, “Data for DCP probe MSD-CYP11B2” (2021)

Tests used:
[1] = target: Serine/threonine-protein kinase 26 (Homo sapiens) (UniProt Q9P289); details: Compound concentration 1000.0 nM
[2] = target: Tyrosine-protein kinase JAK3 (Homo sapiens) (UniProt P52333); details: Compound concentration 1000.0 nM
[3] = target: Beta-2 adrenergic receptor (Homo sapiens) (UniProt P07550); details: Compound concentration 10.0 uM
[4] = target: Phosphatidylinositol 3-kinase C2 domain-containing subunit gamma (Homo sapiens) (UniProt O75747); details: Compound concentration 1000.0 nM
[5] = target: Cyclin-dependent kinase 14 (Homo sapiens) (UniProt O94921); details: Compound concentration 1000.0 nM
[6] = target: T1, Muscarinic acetylcholine receptor M1 (Homo sapiens) (UniProt P11229); details: Compound concentration 10.0 uM
T1 sequence (whole entry): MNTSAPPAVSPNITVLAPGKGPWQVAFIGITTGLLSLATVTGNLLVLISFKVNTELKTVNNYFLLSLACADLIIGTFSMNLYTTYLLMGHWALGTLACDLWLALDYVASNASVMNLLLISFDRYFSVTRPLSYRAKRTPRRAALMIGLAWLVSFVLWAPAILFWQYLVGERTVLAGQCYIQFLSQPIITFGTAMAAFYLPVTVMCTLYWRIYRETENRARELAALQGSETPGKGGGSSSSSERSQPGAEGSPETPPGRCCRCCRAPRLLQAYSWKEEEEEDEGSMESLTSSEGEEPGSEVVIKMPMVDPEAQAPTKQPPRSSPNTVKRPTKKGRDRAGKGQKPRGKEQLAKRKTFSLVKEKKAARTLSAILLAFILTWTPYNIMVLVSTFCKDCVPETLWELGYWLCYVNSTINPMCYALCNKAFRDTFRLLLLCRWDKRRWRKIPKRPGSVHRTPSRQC

[7] = target: Phosphatidylinositol 4,5-bisphosphate 3-kinase catalytic subunit delta isoform (Homo sapiens) (UniProt O00329); details: Compound concentration 1000.0 nM
[8] = target: Vascular endothelial growth factor receptor 3 (Homo sapiens) (UniProt P35916); details: Compound concentration 1000.0 nM
[9] = target: Phosphatidylinositol 4-phosphate 3-kinase C2 domain-containing subunit beta (Homo sapiens) (UniProt O00750); details: Compound concentration 1000.0 nM
[10] = target: Serine/threonine-protein kinase LATS1 (Homo sapiens) (UniProt O95835); details: Compound concentration 1000.0 nM
[11] = target: Cyclin-dependent kinase 4 (Homo sapiens) (UniProt P11802); details: Compound concentration 1000.0 nM
Chain of Cyclin-dependent kinase 4 (Homo sapiens) (P11802 whole entry): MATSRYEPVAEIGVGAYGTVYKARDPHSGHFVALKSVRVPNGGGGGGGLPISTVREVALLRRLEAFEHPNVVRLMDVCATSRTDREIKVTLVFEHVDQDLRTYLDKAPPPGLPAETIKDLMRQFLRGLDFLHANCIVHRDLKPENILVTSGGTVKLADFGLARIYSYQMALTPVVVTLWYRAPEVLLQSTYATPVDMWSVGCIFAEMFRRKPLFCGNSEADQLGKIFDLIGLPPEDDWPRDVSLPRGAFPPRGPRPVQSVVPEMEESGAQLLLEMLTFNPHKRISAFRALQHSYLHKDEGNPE

[12] = target: Serine/threonine-protein kinase Sgk2 (Homo sapiens) (UniProt Q9HBY8); details: Compound concentration 1000.0 nM
[13] = target: Serine/threonine-protein kinase RIO3 (Homo sapiens) (UniProt O14730); details: Compound concentration 1000.0 nM
Chain of Serine/threonine-protein kinase RIO3 (Homo sapiens) (O14730 whole entry): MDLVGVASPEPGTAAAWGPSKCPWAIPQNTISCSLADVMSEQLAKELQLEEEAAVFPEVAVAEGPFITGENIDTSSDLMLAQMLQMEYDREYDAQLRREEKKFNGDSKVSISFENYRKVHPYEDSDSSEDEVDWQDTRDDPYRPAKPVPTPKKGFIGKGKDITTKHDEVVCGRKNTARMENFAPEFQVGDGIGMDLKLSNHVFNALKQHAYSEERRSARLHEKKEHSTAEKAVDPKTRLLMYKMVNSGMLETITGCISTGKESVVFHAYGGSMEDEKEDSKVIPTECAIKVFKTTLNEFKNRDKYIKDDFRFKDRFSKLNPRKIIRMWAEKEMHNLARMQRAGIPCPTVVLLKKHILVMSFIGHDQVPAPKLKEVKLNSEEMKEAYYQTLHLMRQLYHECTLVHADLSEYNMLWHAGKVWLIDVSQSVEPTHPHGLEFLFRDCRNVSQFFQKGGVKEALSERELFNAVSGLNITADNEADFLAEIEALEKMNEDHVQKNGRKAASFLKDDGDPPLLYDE

[14] = target: Citron Rho-interacting kinase (Homo sapiens) (UniProt O14578); details: Compound concentration 1000.0 nM
[15] = target: Serine/threonine-protein kinase Nek11 (Homo sapiens) (UniProt Q8NG66); details: Compound concentration 1000.0 nM
[16] = target: Ephrin type-A receptor 7 (Homo sapiens) (UniProt Q15375); details: Compound concentration 1000.0 nM
[17] = target: Epidermal growth factor receptor (Homo sapiens) (UniProt P00533); details: Compound concentration 1000.0 nM
[18] = target: Bone morphogenetic protein receptor type-2 (Homo sapiens) (UniProt Q13873); details: Compound concentration 1000.0 nM
[19] = target: T2, Alpha-2B adrenergic receptor (Homo sapiens) (UniProt P18089); details: Compound concentration 10.0 uM
T2 sequence (whole entry): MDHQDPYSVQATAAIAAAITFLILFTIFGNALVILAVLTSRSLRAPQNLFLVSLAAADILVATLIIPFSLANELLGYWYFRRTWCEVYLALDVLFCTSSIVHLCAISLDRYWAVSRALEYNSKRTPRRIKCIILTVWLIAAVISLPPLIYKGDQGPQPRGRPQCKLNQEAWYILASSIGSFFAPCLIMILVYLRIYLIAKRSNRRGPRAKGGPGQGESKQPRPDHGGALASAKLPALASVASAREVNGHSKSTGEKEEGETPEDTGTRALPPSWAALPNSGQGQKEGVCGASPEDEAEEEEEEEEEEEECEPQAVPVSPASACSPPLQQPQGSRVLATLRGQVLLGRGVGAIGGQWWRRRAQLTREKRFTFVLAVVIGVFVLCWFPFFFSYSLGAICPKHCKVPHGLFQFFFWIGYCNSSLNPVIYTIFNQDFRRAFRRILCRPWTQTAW

[20] = system: Tyrosine-protein kinase ABL1 (Homo sapiens), P00519 [F317I]; details: Compound concentration 1000.0 nM
Chain of Tyrosine-protein kinase ABL1 (Homo sapiens), P00519 [F317I] (P00519 whole entry F317I): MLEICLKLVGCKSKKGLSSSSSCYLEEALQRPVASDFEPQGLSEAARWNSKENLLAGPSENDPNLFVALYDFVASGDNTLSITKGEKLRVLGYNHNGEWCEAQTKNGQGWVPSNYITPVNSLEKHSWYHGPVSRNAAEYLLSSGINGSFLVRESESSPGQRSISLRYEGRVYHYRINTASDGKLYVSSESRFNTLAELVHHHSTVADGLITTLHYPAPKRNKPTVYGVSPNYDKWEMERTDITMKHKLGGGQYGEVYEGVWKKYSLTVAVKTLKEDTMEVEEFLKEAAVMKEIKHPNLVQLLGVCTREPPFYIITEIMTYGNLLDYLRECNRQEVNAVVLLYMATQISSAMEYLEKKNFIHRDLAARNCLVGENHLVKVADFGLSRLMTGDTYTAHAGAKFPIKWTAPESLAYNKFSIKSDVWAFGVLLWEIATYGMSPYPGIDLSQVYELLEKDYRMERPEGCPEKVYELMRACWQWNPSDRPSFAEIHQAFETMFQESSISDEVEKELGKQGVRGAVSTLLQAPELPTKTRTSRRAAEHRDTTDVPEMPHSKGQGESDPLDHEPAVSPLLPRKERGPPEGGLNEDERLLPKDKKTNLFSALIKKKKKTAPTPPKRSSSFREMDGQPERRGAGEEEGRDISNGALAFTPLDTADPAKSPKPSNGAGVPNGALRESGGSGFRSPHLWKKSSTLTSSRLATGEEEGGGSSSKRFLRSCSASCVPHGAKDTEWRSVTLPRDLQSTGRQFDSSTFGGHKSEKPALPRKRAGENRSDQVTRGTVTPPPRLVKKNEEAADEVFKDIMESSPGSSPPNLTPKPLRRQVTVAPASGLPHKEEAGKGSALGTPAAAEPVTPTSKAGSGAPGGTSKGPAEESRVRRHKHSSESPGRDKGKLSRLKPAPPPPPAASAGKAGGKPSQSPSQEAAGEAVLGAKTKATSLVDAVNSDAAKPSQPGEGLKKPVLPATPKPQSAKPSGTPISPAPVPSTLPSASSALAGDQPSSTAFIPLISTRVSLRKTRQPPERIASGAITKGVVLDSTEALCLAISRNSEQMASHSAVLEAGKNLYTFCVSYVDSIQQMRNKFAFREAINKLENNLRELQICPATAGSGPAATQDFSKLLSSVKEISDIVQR

[21] = target: MAP/microtubule affinity-regulating kinase 4 (Homo sapiens) (UniProt Q96L34); details: Compound concentration 1000.0 nM
Chain of MAP/microtubule affinity-regulating kinase 4 (Homo sapiens) (Q96L34 whole entry): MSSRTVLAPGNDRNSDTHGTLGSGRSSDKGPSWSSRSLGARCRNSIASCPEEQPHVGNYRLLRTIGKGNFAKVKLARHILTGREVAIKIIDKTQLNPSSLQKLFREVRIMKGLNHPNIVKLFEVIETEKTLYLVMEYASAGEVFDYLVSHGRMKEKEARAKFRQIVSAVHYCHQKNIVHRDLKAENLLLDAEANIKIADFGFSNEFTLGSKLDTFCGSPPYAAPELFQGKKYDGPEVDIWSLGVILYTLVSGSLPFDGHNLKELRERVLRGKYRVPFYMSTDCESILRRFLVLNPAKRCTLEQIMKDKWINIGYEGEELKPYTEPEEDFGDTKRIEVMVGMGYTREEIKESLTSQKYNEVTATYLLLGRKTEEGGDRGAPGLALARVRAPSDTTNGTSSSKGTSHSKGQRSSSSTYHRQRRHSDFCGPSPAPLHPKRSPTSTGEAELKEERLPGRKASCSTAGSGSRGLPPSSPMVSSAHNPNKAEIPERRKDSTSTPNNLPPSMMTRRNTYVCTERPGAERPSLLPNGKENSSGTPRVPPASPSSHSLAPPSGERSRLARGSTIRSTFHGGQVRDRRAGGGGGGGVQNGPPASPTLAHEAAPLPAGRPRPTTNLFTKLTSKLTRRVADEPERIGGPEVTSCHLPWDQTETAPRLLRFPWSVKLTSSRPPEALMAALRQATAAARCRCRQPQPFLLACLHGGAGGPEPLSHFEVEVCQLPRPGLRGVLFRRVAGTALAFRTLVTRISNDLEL

[22] = target: Beta-adrenergic receptor kinase 1 (Homo sapiens) (UniProt P25098); details: Compound concentration 1000.0 nM
[23] = target: NUAK family SNF1-like kinase 1 (Homo sapiens) (UniProt O60285); details: Compound concentration 1000.0 nM
Chain of NUAK family SNF1-like kinase 1 (Homo sapiens) (O60285 whole entry): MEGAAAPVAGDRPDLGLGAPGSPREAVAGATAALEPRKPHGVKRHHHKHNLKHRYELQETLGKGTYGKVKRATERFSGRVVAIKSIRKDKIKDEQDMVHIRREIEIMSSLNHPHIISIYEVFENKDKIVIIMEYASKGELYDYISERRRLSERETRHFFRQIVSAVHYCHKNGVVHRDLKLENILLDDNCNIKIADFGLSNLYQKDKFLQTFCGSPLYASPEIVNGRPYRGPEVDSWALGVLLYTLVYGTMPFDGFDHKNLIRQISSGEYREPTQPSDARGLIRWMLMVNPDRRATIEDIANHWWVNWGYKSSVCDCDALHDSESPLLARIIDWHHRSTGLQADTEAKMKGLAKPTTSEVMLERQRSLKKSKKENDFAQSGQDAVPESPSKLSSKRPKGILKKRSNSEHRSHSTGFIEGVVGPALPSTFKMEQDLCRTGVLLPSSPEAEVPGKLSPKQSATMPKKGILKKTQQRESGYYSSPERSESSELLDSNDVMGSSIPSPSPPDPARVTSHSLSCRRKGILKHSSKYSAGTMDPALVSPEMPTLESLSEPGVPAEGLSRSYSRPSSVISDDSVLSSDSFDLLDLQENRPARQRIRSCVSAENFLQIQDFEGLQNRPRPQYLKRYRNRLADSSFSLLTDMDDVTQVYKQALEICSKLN

[24] = target: Calcium/calmodulin-dependent protein kinase type II subunit beta (Homo sapiens) (UniProt Q13554); details: Compound concentration 1000.0 nM
[25] = target: Serine/threonine-protein kinase Nek5 (Homo sapiens) (UniProt Q6P3R8); details: Compound concentration 1000.0 nM
[26] = target: Serine/threonine-protein kinase SBK1 (Homo sapiens) (UniProt Q52WX2); details: Compound concentration 1000.0 nM
Chain of Serine/threonine-protein kinase SBK1 (Homo sapiens) (Q52WX2 whole entry): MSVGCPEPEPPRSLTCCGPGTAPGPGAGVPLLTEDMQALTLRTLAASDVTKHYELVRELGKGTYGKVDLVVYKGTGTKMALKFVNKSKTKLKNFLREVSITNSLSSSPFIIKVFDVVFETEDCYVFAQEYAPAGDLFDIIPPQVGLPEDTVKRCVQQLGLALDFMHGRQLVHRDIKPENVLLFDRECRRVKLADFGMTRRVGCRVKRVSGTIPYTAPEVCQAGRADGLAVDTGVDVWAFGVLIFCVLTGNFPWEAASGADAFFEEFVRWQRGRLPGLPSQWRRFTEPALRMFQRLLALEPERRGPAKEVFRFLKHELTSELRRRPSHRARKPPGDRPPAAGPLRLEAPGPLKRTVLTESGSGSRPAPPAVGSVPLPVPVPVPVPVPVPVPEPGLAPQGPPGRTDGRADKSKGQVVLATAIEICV

[27] = target: MAP/microtubule affinity-regulating kinase 3 (Homo sapiens) (UniProt P27448); details: Compound concentration 1000.0 nM
[28] = target: Protein kinase C delta type (Homo sapiens) (UniProt Q05655); details: Compound concentration 1000.0 nM
Chain of Protein kinase C delta type (Homo sapiens) (Q05655 whole entry, looked up): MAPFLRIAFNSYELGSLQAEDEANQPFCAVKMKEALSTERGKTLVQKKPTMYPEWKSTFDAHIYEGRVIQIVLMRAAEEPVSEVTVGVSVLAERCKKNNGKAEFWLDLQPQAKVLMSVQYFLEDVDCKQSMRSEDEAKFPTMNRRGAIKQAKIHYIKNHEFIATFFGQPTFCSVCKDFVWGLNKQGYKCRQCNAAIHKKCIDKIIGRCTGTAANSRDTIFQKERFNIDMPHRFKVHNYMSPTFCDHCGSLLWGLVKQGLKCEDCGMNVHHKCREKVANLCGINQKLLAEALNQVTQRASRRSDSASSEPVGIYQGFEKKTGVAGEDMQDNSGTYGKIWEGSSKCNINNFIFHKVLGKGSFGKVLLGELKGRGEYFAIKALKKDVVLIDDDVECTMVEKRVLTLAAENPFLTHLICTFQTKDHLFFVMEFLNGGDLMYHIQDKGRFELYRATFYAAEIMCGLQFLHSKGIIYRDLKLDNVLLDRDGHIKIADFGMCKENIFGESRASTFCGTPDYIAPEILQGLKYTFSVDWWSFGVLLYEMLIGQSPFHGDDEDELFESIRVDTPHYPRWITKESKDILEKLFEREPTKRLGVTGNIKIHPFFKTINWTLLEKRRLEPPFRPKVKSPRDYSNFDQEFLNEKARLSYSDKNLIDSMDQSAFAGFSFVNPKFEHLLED

[29] = target: Aurora kinase B (Homo sapiens) (UniProt Q96GD4); details: Compound concentration 1000.0 nM

Chain of Beta-2 adrenergic receptor (Homo sapiens) (P07550 whole entry, looked up, the tested form may be a part): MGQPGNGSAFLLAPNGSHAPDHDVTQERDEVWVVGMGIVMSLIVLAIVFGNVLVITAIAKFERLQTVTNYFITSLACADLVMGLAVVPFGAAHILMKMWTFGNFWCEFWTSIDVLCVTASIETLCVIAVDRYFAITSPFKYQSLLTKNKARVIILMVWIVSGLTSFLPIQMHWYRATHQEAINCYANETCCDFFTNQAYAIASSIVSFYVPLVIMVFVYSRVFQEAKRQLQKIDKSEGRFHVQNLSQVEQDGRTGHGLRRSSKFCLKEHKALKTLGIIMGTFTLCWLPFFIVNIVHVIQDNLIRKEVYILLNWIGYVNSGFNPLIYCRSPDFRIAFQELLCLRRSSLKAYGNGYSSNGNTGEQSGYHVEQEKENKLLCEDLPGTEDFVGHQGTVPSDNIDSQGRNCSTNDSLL

Molecule FC(F)(F)c1ccc2c(c1)nc(-c1cccnc1)n2C1CC1 [MSD-CYP11B2-Negative-control] has a residual activity [1] of 100%, a residual activity [2] of 100% and an inhibition [3] of 1.56%. For the same molecule, the residual activity [4] was 100%, the residual activity [5] was 100% and the inhibition [6] was -7.11%. It also gave a residual activity [7] of 81%, a residual activity [8] of 91% and a residual activity [9] of 100%. For the same molecule, the residual activity [10] was 86%, the residual activity [11] was 100% and the residual activity [12] was 100%. It also gave a residual activity [13] of 93%, a residual activity [14] of 100% and a residual activity [15] of 100%. For the same molecule, the residual activity [16] was 100%, the residual activity [17] was 86% and the residual activity [18] was 100%. For the same molecule, the inhibition [19] was 43.3%, the residual activity [20] was 100% and the residual activity [21] was 100%. For the same molecule, the residual activity [22] was 100%, the residual activity [23] was 100% and the residual activity [24] was 100%. For the same molecule, the residual activity [25] was 100%, the residual activity [26] was 100% and the residual activity [27] was 100%. For the same molecule, the residual activity [28] was 100% and the residual activity [29] was 100%.
CC(C)(O)c1cncc(-c2nc3ccc(F)cc3n2C2CC2)c1 [MSD-CYP11B2] gave a residual activity [1] of 100%, a residual activity [2] of 100% and an inhibition [3] of 2.65%. For the same molecule, the residual activity [4] was 100%, the residual activity [5] was 100% and the inhibition [6] was -4.49%. It also gave a residual activity [7] of 100%, a residual activity [8] of 100% and a residual activity [9] of 95%. The residual activity [10] was 82%, the residual activity [11] was 100% and the residual activity [12] was 100%. The residual activity [13] was 100%, the residual activity [14] was 100% and the residual activity [15] was 100%. It also gave a residual activity [16] of 100%, a residual activity [17] of 100% and a residual activity [18] of 100%. The inhibition [19] was 76.4%, the residual activity [20] was 100% and the residual activity [21] was 100%. The residual activity [22] was 100%, the residual activity [23] was 100% and the residual activity [24] was 100%. It also gave a residual activity [25] of 100%, a residual activity [26] of 100% and a residual activity [27] of 100%. It also gave a residual activity [28] of 100% and a residual activity [29] of 100%.
